Measured values reported in patent US20230104936A1, “TRPML MODULATORS” (Casma Therapeutics, Inc., priority 2019, published 2023).

Tested on: TFEB
Assay: TFEB nuclear translocation assay, HeLa wt cells
Format: cell-based
Conditions: Homo sapiens, HeLa, 2 h, 2 hrs compound treatment, Table 1 does not say HeLa wt or TRPML1 KO
Summary of the method: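 HeLa wt cells were treated with compound for 2 hrs at 37° C, then fixed in 4% PFA and immunostained for TFEB with an Alexa 488 secondary and Hoechst nuclear counterstain. Automated epifluorescence imaging at ×20 gave the ratio of nuclear TFEB intensity to a perinuclear ring region, from which AC50 was derived.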

## CC(c1cccc(F)c1N1CCC(CN2C3CCC2COC3)CC1)S(=O)(=O)c1ccc(S(C)(=O)=O)cc1 (stereo not shown) [Compound A-904, 8-[(1-{2-fluoro-6-[1-(4-methanesulfonylbenzenesulfonyl)ethyl]phenyl}piperidin-4-yl)methyl]-3-oxa-8-azabicyclo[3.2.1]octane]
  AC50: 2010 to 8000 nM

## Cc1ccc(S(=O)(=O)C(C)c2cccc(F)c2N2CCC(CN3C4CCC3COC4)CC2)cc1 (stereo not shown) [Compound A-905, 8-[(1-{2-fluoro-6-[1-(4-methylbenzenesulfonyl)ethyl]phenyl}piperidin-4-yl)methyl]-3-oxa-8-azabicyclo[3.2.1]octane]
  AC50: ≤ 2000 nM

## CC(c1cccc(F)c1N1CCC(CN2C3CCC2COC3)CC1)S(=O)(=O)c1ccc(C(F)F)cc1 (stereo not shown) [Compound A-906, 8-{[1-(2-{1-[4-(difluoromethyl)benzenesulfonyl]ethyl}-6-fluorophenyl)piperidin-4-yl]methyl}-3-oxa-8-azabicyclo[3.2.1]octane]
  AC50: ≤ 2000 nM

## CC(c1cccc(F)c1N1CCC(CN2C3CCC2COC3)CC1)S(=O)(=O)c1ccc2c(c1)CCC2 (stereo not shown) [Compound A-908, 8-[(1-{2-[1-(2,3-dihydro-1H-indene-5-sulfonyl)ethyl]-6-fluorophenyl}piperidin-4-yl)methyl]-3-oxa-8-azabicyclo[3.2.1]octane]
  AC50: 2010 to 8000 nM

## CN(C)S(=O)(=O)c1ccc(S(=O)(=O)Nc2cccc(F)c2N2CCC(N3CCC34CCCOC4)CC2)cc1 (stereo not shown) [Compound A-917, N4-[3-fluoro-2-(4-{6-oxa-1-azaspiro[3.5]nonan-1-yl}piperidin-1-yl)phenyl]-N1,N1-dimethylbenzene-1,4-disulfonamide]
  AC50: 2010 to 8000 nM

## C[C@@H]1CN(CC2CCCN(c3c(F)cccc3NS(=O)(=O)c3ccc(S(=O)(=O)N(C)C)cc3)CC2)C[C@H](C)O1 (stereo partly drawn) [Compound A-918, N4-[2-(4-{[(2R,6S)-2,6-dimethylmorpholin-4-yl]methyl}azepan-1-yl)-3-fluorophenyl]-N1,N1-dimethylbenzene-1,4-disulfonamide]
  AC50: ≤ 2000 nM

## O=S(=O)(Nc1cccc(F)c1N1CCC(CN2C3CCC2COC3)CC1)c1ccc(C(F)(F)C2CC2)cc1 [Compound A-919, 4-(cyclopropyldifluoromethyl)-N-{3-fluoro-2-[4-({3-oxa-8-azabicyclo[3.2.1]octan-8-yl}methyl)piperidin-1-yl]phenyl}benzene-1-sulfonamide]
  AC50: ≤ 2000 nM

## CC(c1cccc(F)c1N1CCCCC1)S(=O)(=O)c1ccc2c(c1)CCS2(=O)=O (stereo not shown) [Compound A-920, 5-{1-[3-fluoro-2-(piperidin-1-yl)phenyl]ethanesulfonyl}-2,3-dihydro-1λ^6-benzothiophene-1,1-dione]
  AC50: ≥ 10000 nM

## CN(C)S(=O)(=O)c1ccc(S(=O)(=O)Nc2cccc(C#CC(F)F)c2N2CCCCC2)cc1 [Compound A-921, N4-[3-(3,3-difluoroprop-1-yn-1-yl)-2-(piperidin-1-yl)phenyl]-N1,N1-dimethylbenzene-1,4-disulfonamide]
  AC50: ≤ 2000 nM

## CC(C)S(=N)(=O)c1ccc(S(=O)(=O)[C@H](C)c2cccc(F)c2N2CCCCC2)cc1 (stereo partly drawn) [Compound A-922, (4-(((R)-1-(3-fluoro-2-(piperidin-1-yl)phenyl)ethyl)sulfonyl)phenyl)(imino)(isopropyl)-λ^6-sulfanone]
  AC50: ≥ 10000 nM

## Cc1cc(NS(=O)(=O)c2ccc(S(=O)(=O)N(C)C)cc2)n(C2CCCCC2)c(=O)c1 [Compound A-934, N4-(1-cyclohexyl-4-methyl-6-oxo-1,6-dihydropyridin-2-yl)-N1,N1-dimethylbenzene-1,4-disulfonamide]
  AC50: ≥ 10000 nM

## CC(c1cccc(F)c1N1CCCCC1)S(=O)(=O)c1ccc(S(=O)(=O)N(C)C)nn1 (stereo not shown) [Compound A-941, 6-{1-[3-fluoro-2-(piperidin-1-yl)phenyl]ethanesulfonyl}-N,N-dimethylpyridazine-3-sulfonamide]
  AC50: 2010 to 8000 nM

## Cc1cnc(N2CCC(CN3CCC(F)(F)CC3)CC2)c(NS(=O)(=O)c2ccc(S(=O)(=O)N(C)C)cc2)c1 [Compound A-952, N4-(2-{4-[(4,4-difluoropiperidin-1-yl)methyl]piperidin-1-yl}-5-methylpyridin-3-yl)-N1,N1-dimethylbenzene-1,4-disulfonamide]
  AC50: ≤ 2000 nM

## CN=S(=O)(c1ccc(S(=O)(=O)Nc2cccc(F)c2N2CCC(CN3C[C@@H](C)O[C@@H](C)C3)CC2)cc1)N(C)C (stereo partly drawn) [Compound A-956, 4-{[2-(4-{[(2R,6S)-2,6-dimethylmorpholin-4-yl]methyl}piperidin-1-yl)-3-fluorophenyl]sulfamoyl}-N,N,N-trimethylbenzene-1-sulfonoimidamide]
  AC50: ≤ 2000 nM

## CC(c1cccc(F)c1N1CCOCC1)S(=O)(=O)c1ccc2c(c1)CCS2(=O)=O (stereo not shown) [Compound A-957, 5-{1-[3-fluoro-2-(morpholin-4-yl)phenyl]ethanesulfonyl}-2,3-dihydro-1λ^6-benzothiophene-1,1-dione]
  AC50: ≥ 10000 nM

## CC(c1cc(Cl)cnc1N1CCC(CN2CCC(F)(F)CC2)CC1)S(=O)(=O)c1ccc(S(=O)(=O)N(C)C)cc1 (stereo not shown) [Compound A-958, 4-[1-(5-chloro-2-{4-[(4,4-difluoropiperidin-1-yl)methyl]piperidin-1-yl}pyridin-3-yl)ethanesulfonyl]-N,N-dimethylbenzene-1-sulfonamide]
  AC50: ≤ 2000 nM

## C[C@@H]1CN(c2nn(S(=O)(=O)c3ccc(S(=O)(=O)N(C)C)cc3)c3ccccc23)C[C@H](C)C1(F)F [Compound A-968, 4-({3-[(3R,5S)-4,4-difluoro-3,5-dimethylpiperidin-1-yl]-1H-indazol-1-yl}sulfonyl)-N,N-dimethylbenzene-1-sulfonamide]
  AC50: ≤ 2000 nM

## C[C@@H]1CN(c2nn(S(=O)(=O)c3ccc(S(=O)(=O)N(C)C)cc3)c3ccccc23)C[C@H](C)C1F (stereo partly drawn) [Compound A-969, 4-({3-[(3R,5S)-4-fluoro-3,5-dimethylpiperidin-1-yl]-1H-indazol-1-yl}sulfonyl)-N,N-dimethylbenzene-1-sulfonamide]
  AC50: ≤ 2000 nM

## CC(c1cccc(F)c1N1CCC(CN2C[C@@H](C)C(F)(F)[C@@H](C)C2)CC1)S(=O)(=O)c1ccc(S(=O)(=O)N(C)C)cc1 (stereo partly drawn) [Compound A-970, 4-{1-[2-(4-{[(3R,5S)-4,4-difluoro-3,5-dimethylpiperidin-1-yl]methyl}piperidin-1-yl)-3-fluorophenyl]ethanesulfonyl}-N,N-dimethylbenzene-1-sulfonamide]
  AC50: ≤ 2000 nM

## CC(Sc1ccc(S(=O)(=O)C(F)F)cc1)c1cccc(F)c1N1CCCCC1 (stereo not shown) [Compound A-971, 1-(2-{1-[(4-difluoromethanesulfonylphenyl)sulfanyl]ethyl}-6-fluorophenyl)piperidine]
  AC50: 2010 to 8000 nM

## CC(c1cccc(F)c1N1CCCCC1)[S+]([O-])c1ccc(S(=O)(=O)C(F)F)cc1 (stereo not shown) [Compound A-972, 1-{2-[1-(4-difluoromethanesulfonylbenzenesulfinyl)ethyl]-6-fluorophenyl}piperidine]
  AC50: 2010 to 8000 nM

## CC(c1cccc(F)c1N1CCCCC1)S(=O)(=O)c1ccc(S(=O)(=O)C(F)F)cc1 (stereo not shown) [Compound A-973, 1-{2-[1-(4-difluoromethanesulfonylbenzenesulfonyl)ethyl]-6-fluorophenyl}piperidine]
  AC50: ≤ 2000 nM

## C[C@@H]1COC[C@H](C)N1C[C@H]1CCN(c2c(F)cccc2NS(=O)(=O)c2ccc(S(=O)(=O)N(C)C)cc2)C1 [Compound A-984]
  AC50: ≤ 2000 nM

## CC(c1cccc(F)c1N1CCC(CN2CC3CCC(C2)C3(F)F)CC1)S(=O)(=O)c1ccc(S(=O)(=O)N(C)C)cc1 (stereo not shown) [Compound A-985, 4-(1-{2-[4-({8,8-difluoro-3-azabicyclo[3.2.1]octan-3-yl}methyl)piperidin-1-yl]-3-fluorophenyl}ethanesulfonyl)-N,N-dimethylbenzene-1-sulfonamide]
  AC50: ≤ 2000 nM

## CC(c1cncc(F)c1N1CCC(F)(F)CC1)S(=O)(=O)c1ccc(S(=O)(=O)N(C)C)cc1 (stereo not shown) [Compound A-986, 4-{1-[4-(4,4-difluoropiperidin-1-yl)-5-fluoropyridin-3-yl]ethanesulfonyl}-N,N-dimethylbenzene-1-sulfonamide]
  AC50: ≥ 10000 nM

## CC(c1cccnc1N1CCC(CN2CCC(F)(F)CC2)CC1)S(=O)(=O)c1ccc(S(=O)(=O)N(C)C)cc1 (stereo not shown) [Compound A-987, 4-[1-(2-{4-[(4,4-difluoropiperidin-1-yl)methyl]piperidin-1-yl}pyridin-3-yl)ethanesulfonyl]-N,N-dimethylbenzene-1-sulfonamide]
  AC50: ≤ 2000 nM

## CC(c1cncc(F)c1N1CCC(CN2CCC(F)(F)CC2)CC1)S(=O)(=O)c1ccc(S(=O)(=O)N(C)C)cc1 (stereo not shown) [Compound A-996, 4-[1-(4-{4-[(4,4-difluoropiperidin-1-yl)methyl]piperidin-1-yl}-5-fluoropyridin-3-yl)ethanesulfonyl]-N,N-dimethylbenzene-1-sulfonamide]
  AC50: ≤ 2000 nM

## CC(c1cccc(F)c1N1CCC(CN2C[C@@H](C)O[C@@H](C)C2)CC1)S(=O)(=O)c1ccc(N=S(C)(C)=O)cc1 (stereo partly drawn) [Compound A-1002, [(4-{1-[2-(4-{[(2R,6S)-2,6-dimethylmorpholin-4-yl]methyl}piperidin-1-yl)-3-fluorophenyl]ethanesulfonyl}phenyl)imino]dimethyl-λ^6-sulfanone]
  AC50: ≥ 10000 nM
